Where a SMILES comes first, the peptide text is derived from it.
Tested on: GP120-Mediated Neurotoxicity
Test: Neuronal survival assay with 1 pM gp120 (count of neuron-specific enolase positive cells)
Type: cell-based
Conditions: together with 1 pM gp120 (RF isolate), primary cultures of mixed rat neurons glia; for inhibition of neuronal death caused by gp120 (in words): dose-dependent; for protection against gp120 neuronal death: peptide at 10 μM
Source text: Materials: A gp120 isolate RFII was obtained from Dr. P. Nara, NCI, NIH. All of the gp120's are purified, >95% homogeneous and previously tested for neurotoxicity with cultured neurons and were used at 1 pM final concentration in cultures of neurons. Peptides of the formula Ile-Lys-Glu-Tyr-Phe-Thr-Ser (SEQ. ID NO: 2), Ile-Lys-Glu-Tyr-Phe (SEQ. ID NO: 3), and Leu-Glu-Ser-Tyr-Thr (SEQ. ID NO: 1), were obtained from Peninsula Labs, CA. and synthesized by solid-phase Merrified methods and purified to greater than 95% homogeneity by two HPLC methods and structure confirmed by MASS Spectroscopy Analysis.
Neuronal cell culture: Dissociated hippocampal cultures are prepared from neonatal (day 2) rat cortex and hippocampus by known methods. Sterilely dissected brain tissue is minced and treated with 0.125% trypsin for 30 minutes then gently triturated with fire-polished Pasteur pipes and plated in six-well trays (35 mm^2) at low density (50,000 cells/35 mm^2 dish) upon confluent layers of astrocytes in medium containing D-MEM, penicillin (25 U/ml), streptomycin ([…]), D-glucose (0.6%), and 10% heat-inactivated fetal calf serum (HyClone Laboratories), supplemented with insulin, transferrin, selenium, corticosterone, and triiodothyronine. Medium is changed after 3 days. At 6 days, half the medium is exchanged for fresh medium. The astrocyte feeder layers were prepared from the cortexes of neonatal rats following dissection and trituration. Plating was 2.5×10^2 cells per well. Feeder layers were grown in Eagles's minimal essential medium (Formula No. 82-0234DJ, Gibco) with 10% fetal calf serum until confluent (7-14 days). With this medium the feeder cultures were free of neurons and consisted of flat cells that were stained by antibodies to glial fibrillary acidic protein, a standard immunocytochemical marker for astroglia. When hippocampal or cortical cells were added to the confluent feeder layer, the medium was changed to the following composition: 5% horse serum and MEM supplement with defined medium components. The hippocampal or cortical cultures were treated with 5′-fluoro-2′-deoxyuridine (15 ug/ml plus uridine, 35 ug/ml) to suppress the overgrowth of background cells and allow the establishment of neurons. The neurons in these cultures are post-mitotic. The neuronal cultures were allowed to grow for 1 week prior to the beginning of the experimental period. Before treating the cultures, a complete change of medium was given.
Neuronal survival assay: GP120's, with or without added peptides, were diluted in phosphate buffered saline and added to the cultures, which were treated only once for a four day period. At termination, cultures were fixed with glutaraldehyde as previously described. At the end of the test period, neuronal survival was assessed by immunohistochemical detection of neuron-specific enolase positive cells (neurons). Cultures were counted in a blinded fashion without knowledge of sample treatment in 40 fields at pre-determined coordinate locations. The total area counted is 50 mm^2. Each value reported is the mean±the standard error of 3-4 determinations. Control (saline treated) wells from these cultures have 395±20 neurons. Statistical comparisons between experimental and control culture neuronal cell counts are via analysis of variance with the Student-Newman-Kuels multiple comparison of means test.
The dotted line in FIG. 1 represents the mean number of neurons in control cultures.

Compound	inhibition of neuronal death caused by gp120 (in words)	protection against gp120 neuronal death	EC50 (read-out: EC50 for preventing neuronal loss caused by gp120, four day period) [nM]
CC[C@H](C)[C@H](N)C(=O)N[C@@H](CCCCN)C(=O)N[C@@H](CCC(=O)O)C(=O)N[C@@H](Cc1ccc(O)cc1)C(=O)N[C@@H](Cc1ccccc1)C(=O)N[C@H](C(=O)N[C@@H](CO)C(=O)O)[C@@H](C)O [IKEYFTS, Ile-Lys-Glu-Tyr-Phe-Thr-Ser] (H-IKEYFTS-OH; N-terminus and C-terminus assumed)	preventing neuronal loss	fully protective	100
Ile-Lys-Glu-Tyr-Phe (IKEYF; mammalian) [shorter pentapeptide used to show specificity]	inactive		
Leu-Glu-Ser-Tyr-Thr (LESYT; mammalian)	preventing neuronal loss	partially protective	

— US6713445B1, “Peptides for treatment of HIV infection” (Advanced Immuni T, Inc., priority 1998, dated 2004)
